Results taken from patent US20110224197A1, “PYRIMIDINES AND PYRIDINES USEFUL AS INHIBITORS OF PROTEIN KINASES” (Vertex Pharmaceuticals Incorporated, priority 2008, published 2011).

Columns and labels:
GSK-3 α/β pTYR = assay: pTYR biomarker analysis in brain, Post Stroke Model I; assay type: in vivo, rat; conditions: all doses, termination of study
Experimental: To track the activity of Compound I-3 in the CNS of rats subjected to MCAO, brains were removed and protein lysate was obtained as described above from both vehicle treated and compound treated animals at the termination of the study. Lysates were analyzed by Western blot and probed for GSK-3 α/β pTYR levels.

GSK-3α/β pTYR = assay: Biomarker for leukocytopenia: pTYR in PBMC (Western blot); assay type: in vivo, mice; conditions: all doses
Experimental: To track the activity of Compound (I-3) in mice subjected to 5-FU treatment, peripheral blood was removed at time of sacrifice from both compound and vehicle-treated mice and a protein lysate was obtained from peripheral blood mononuclear cells (PBMC) after removal of red blood cells. Lysates were analyzed by Western blot and probed for GSK-3α/β pTYR levels.

[1] = system: embolic occlusion of the middle cerebral artery (MCAO) in the rat; assay: Post Stroke Recovery Model I (embolic MCAO); assay type: in vivo
Experimental: This study investigates the effect of compounds on volume of cerebral infarction, cell proliferation, and functional recovery after embolic occlusion of the middle cerebral artery (MCAO) in the rat.
Ten Rats, subjected to MCAO (Zhang R L, et. al., 1997 # 1), were randomly assigned to either Vehicle or Compound I-3 after MCAO. The treatment was administered once daily orally starting 24 hours after MCAo for 14 days. 5-bromo-2-deoxyuridine (BrdU, Sigma; 100 mg/kg, i.p.) is administered at 1 day after MCAO, and consecutively for 6 days. Functional assessments are performed before MCAO and at day 1, day 7 and day 14 after MCAO by an investigator who is blinded to the study. The assessment included Neurological Severity Score (mNSS) and Adhesive removal test score, described below. A total of twenty rats are sacrificed at 14 days after MCAO. Three contralateral hemispheres of each group are assigned for analysis. Volume of infarction and cell proliferation in the ipsilateral subventricular zone (SVZ) are measured.
Rats are tested for left forelimb somatosensory deficit with the adhesive removal test (Schallert T, et. al., 1984 # 3). Each animal received 3 trials by placing round strips of packing tape (1.2 cm in diameter) at each testing day and the mean time (seconds) required to remove stimuli from the left forelimb is was recorded.
All the animals are anesthetized with ketamine (44 mg/kg IM) and xylazine (13 mg/kg IM) and sacrificed at fourteen days after MCA occlusion. […] Infarct volumes are measured using a Global Lab Image analysis program (Data Translation). The area of both hemispheres and the area containing the ischemic neuronal damage (mm^2) are calculated by tracing the area on the computer screen. The lesion volume […] is determined by multiplying the appropriate area by the section interval thickness (Chen H, et al., 1992, # 4). […]
To visualize specificity of the immunohischemical reaction, immunostaining of BrdU (a monoclonal antibody against BrdU, 1:100, DAK) is employed. […] BrdU-immunoreactive nuclei in the SVZ are counted on a computer monitor to improve visualization. […]

[2] = system: 5-FU treated C57BL/6 mice; assay: Leukocytopenia animal model (5-FU); assay type: in vivo
From the text: This study evaluates the hematopoietic recovery of peripheral blood and bone marrow cells following treatment with 5-FU (a myeloablative reagent) and compares the recoveries of various doses of the test compound with a cytokine known to enhance recovery rhG-CSF. The introduction of the chemotherapeutic agent causes a decrease in the peripheral blood white blood cell count and in particular, the neutrophil count. […] 5-FU acts by killing all the dividing cells, sparing primitive stem cells which are relatively quiescent and are thus not impacted by the treatment. Following treatment, primitive cells are recruited to proliferate and differentiate, thus re-establishing normal peripheral blood and femoral cell counts. This model may be used to evaluate compounds that could facilitate the recruitment and proliferation of the primitive cells and assess the kinetics of recovery of bone marrow as well as mature cell populations (white blood cells, red blood cells and platelets) in the blood.
One hundred and five C57BL/6 mice at 6-8 weeks of age were purchased from Jackson Labs. All, with the exception of the 4 untreated control mice were treated with 150 mg/kg 5-Fluorouracil (5-FU) interperitoneal (ip) at day 0. The four untreated mice (Group 1) were sacrificed on day 12 and they represent the “normal variability in blood and cell counts”. The 5-FU treated mice were divided equally into 4 distinct groups (Groups 2, 3, 4 and 5). On day −1 (the day before treatment with 5-FU) through to day 12, the mice in group 2 were treated at 8 a.m. and 6 p.m. with just solvent (20% PEG 400/10% Vitamin E TPGS/70% water) and served as the solvent control for groups 4 and 5.
Four mice from this group were sacrificed on days 4, 6, 8, 10 and 12 following the final dose of solvent the morning before sacrificing. On days 1 through 4, the mice in group three were dosed with 50 ug/kg rhG-CSF twice daily with 6 hours separating the daily doses. Four mice from this group were also sacrificed on days 4, 6, 8, 10 and 12. For treatment of test compound, groups 4 and 5, dosing was done as indicated above with the solvent control (2 times daily at 8 am and 6 pm) with compound that was prepared fresh each day.
Compound I-3 was weighed out into 13 vials and an appropriate amount of solvent added to achieve a final concentration for dosing at 30 mg/Kg (high dose). The compound was solubilized by sonication in solvent for 2-3 minutes and then 30% of the volume removed and diluted 1:3 with solvent to prepare compound for dosing at 10 mg/Kg (low dose). This was done daily and delivered to the animal technologist at 1 pm for the evening and next morning dosing. The unused compound was returned and frozen the next day when the freshly prepared sample for the next doses delivered. On days 1 through 12, mice in group 4 received the low dose of compound ([…]) and mice in group 5 received the high dose of compound (30 mg/Kg) twice daily. Four mice were sacrificed for each group on days 4, 6, 8, 10 and 12.
Each time mice were sacrificed from any of the groups, peripheral blood was collected in EDTA microtainer tubes by cardiac puncture. Approximately 400 uL of the blood was sent for analysis of blood indices (WBC, ANC, platelets, hemoglobin and hematocrit) at a central veterinary service laboratory using an automated system. The remainder of the blood was sent to STI where the plasma was separated by centrifugation at 8000 r.p.m. for 10 minutes and stored at −80° C. for future bioassays. Both femurs were also harvested and cells extracted and processed. The femoral cells were counted, red blood cells lysed and the cells subsequently prepared (at 5×10^6 cells/100 uL in Laemmli buffer and an equivalent unprocessed cell pellet) and stored at −80° C. for future protein analyses. Also on day 12, when the animals were sacrificed, their livers were removed and stored in 10% neutral formalin for future analysis. […]

β-catenin [3] = assay: Biomarker for leukocytopenia: β-catenin in PBMC; assay type: in vivo, mice; conditions: all doses
β-catenin [4] = assay: β-catenin in brain, Post Stroke Model I; assay type: in vivo, rat; conditions: all doses
[5] = system: transient middle cerebral artery occlusion (MCAO) in rats; conditions: after transient MCAO; cited from earlier work
[6] = once daily orally starting 24 hours after MCAo for 14 days

Molecule: Cc1nc(-c2ccccc2Cl)nc(Nc2n[nH]c3ccc(F)cc23)c1C [Compound I-3]
- pTYR signal compared to vehicle treated rats (GSK-3 α/β pTYR): significant reduction
- pTYR signal compared to vehicle treated animals (GSK-3α/β pTYR): significant reduction
- number of BrdU positive cells in the ipsilateral SVZ compared with vehicles ([1]; 14 days after MCAO): significantly (p<0.05) increased
- adhesive removal test compared with vehicle group [1, 6]: significant (p<0.05) improvement
- mNSS test compared with vehicle group [1, 6]: significant (p<0.05) improvement
- WBC nadir (lowest cell count observed) ([2]; 5-FU + Compound I-3 10 mg/Kg twice daily): 4 days
- WBC nadir (lowest cell count observed) ([2]; 5-FU + Compound I-3 30 mg/Kg twice daily): 4 days
- kinetics of the WBC and ANC recovery ([2]; 5-FU + high dose (30 mg/Kg twice daily)): enhanced
- Bone marrow cellularity: recovery to normal values ([2]; 5-FU + high dose of test compound): 10 days
- bone marrow cell counts versus 5-FU and rhG-CSF ([2]; 5-FU and high dose, day 8): significantly higher
- bone marrow cellularity nadir ([2]; 5-FU and high dose, versus other groups): did not have as low a nadir as other groups
- Platelet counts ([2]; 5FU + high dose, day 8): soared above the reference ranges
- kinetics of bone marrow cellular recovery ([2]; Group 5 (high dose) versus Groups 3 and 4): fastest
- WBC and ANC recovery compared to 5-FU and rhG-CSF ([2]; high dose): comparable
- WBC and ANC recovery compared to 5-FU and solvent control ([2]; high dose, days 8 and 10): significantly increased
- induction of β-catenin (β-catenin [3]): no induction
- induction of β-catenin (β-catenin [4]): no induction

Molecule: IGF-1: insulin growth factor-1, a known GSK-3 inhibitor
- infarct size in rat brains [5]: reduced infarct size

B1: rhG-CSF: recombinant human granulocyte colony stimulating factor; a cytokine known to enhance recovery (protein, UniProt P09919 31-207, looked up)
Granulocyte …: TPLGPASSLPQSFLLKCLEQVRKIQGDGAALQEKLVSECATYKLCHPEELVLLGHSLGIPWAPLSSCPSQALQLAGCLSQLHSGLFLYQGLLQALEGISPELGPTLDTLQLDVADFATTIWQQMEELGMAPALQPTQGAMPAFASAFQRRAGGVLVASHLQSFLEVSYRVLRHLAQP
- ANC nadir ([2]; 5-FU + rhG-CSF 50 ug/kg twice daily): 4 days
- WBC nadir (lowest cell count observed) ([2]; 5-FU + rhG-CSF 50 ug/kg twice daily, days 1 through 4): 4 days
- Platelet counts ([2]; 5-FU + rhG-CSF, day 8): soared above the reference ranges
- actual neutrophil counts (ANC) ([2]; 5-FU + rhG-CSF, days 4 and 6): almost non-detectable levels
